Measurements published in patent publication US20150198612A1, “Isotopic Labelling of Proteins” (UNIVERSITY OF DUNDEE, priority 2012, published 2015).

Columns and labels:
Cyp4a = test: Western blot of liver drug metabolism enzymes, Cyp4a; details: C57BL/6 mice liver, once daily i.p. for 3 days, single inducer
Cyp2B10 = test: SILAM LC-MS/MS quantification of Cyp2B10 in mouse liver (Example 2); details: for L/H ratio of Cyp2B10 peptide NLQELLDYIGHSVEK: mice treated 1 mg/kg
Procedure: This experiment was conducted to test the utility of the drug metabolism-enhanced reference in an actual SILAM protocol in comparison to normal SILAM protocol.
Liver protein extracts from wild type mice treated with TCPOBOP (1 mg/kg) or Ethoxyquin (1 mg/kg) or corn oil (control) were spiked with liver heavy protein extract from normal SILAM mice or drug metabolism pathway-enhanced SILAM mice according to the present invention.

drug metabolism enzymes = details: mouse, in vivo
[1] = system: drug metabolism related proteins; test: LC-MS/MS protein expression profile of liver from induced mice (Example 1); format: in vivo; details: wild type mice liver; once daily i.p. for 3 days; TCPOBOP 1 mg/kg; versus corn oil; FIG. 3
Procedure: In order to generate a drug metabolism-enhanced SILAC model, the protein expression profiles of liver from animals induced with TCPOBOP (1 mg/kg) or pregnenolone 16α-carbonitrile (PCN) or vehicle were examined. […] Animals were sacrificed 3 days after dosing, liver tissue excised and snap-frozen in liquid nitrogen for storage at −80° C.
Frozen liver tissue was thawed by addition of 10 volumes SDT lysis buffer (4% SDS, 0.1M DTT, 100 mM Tris-HCl pH 7.6) then homogenised by rotor-stator (2×5 sec at 20 k revolutions). Homogenate was heated to 95° C. for 5 minutes, sonicated (2×5 sec), then centrifuged at 16,000×g for 10 minutes. Supernatant (protein sample for analysis) was removed, aliquoted and stored at −80° C. until use. Protein samples (total of 30 μg/well) were electrophoresed through a 12% bis-tris gel in MOPS running buffer supplemented with antioxidant (all Life Technologies, Paisley, UK) alongside a Spectra multicolour broad range protein ladder (Thermo Fisher Scientific, Waltham, Mass.). Gels were stained with coomassie blue, destained, and then rehydrated with Milli-Q water. […] Peptide sample concentration was determined by Nanodrop (Thermo Fisher Scientific) and adjusted to 0.2 mg/mL in water containing 0.1% (vol/vol) trifluoroacetic acid. […] Data were analysed using SIEVE software in conjunction with Mascot database search engine. […]

[2] = system: inflammation related proteins; test: LC-MS/MS of lung proteins after LPS treatment (Example 3); format: in vivo; details: male C57BL/6 mice, single i.p. injection 100 μg, lung 24 hours after dosing
Procedure: Male C57BL/6 mice were given a single intraperitoneal injection of lipopolysaccharide (LPS; 100 μg) or vehicle and tissues were harvested 24 hours after dosing. Lung tissues were lysed in 2% SDS buffer by ultrasonic probe and proteins extracted were resolved onto a SDS-PAGE, followed by a filter assisted trypsin digestion procedure. The protein digests were analysed by LC-MS/MS and the data were analysed using Peaks software for database search and Progenesis for quantification.

Cyp3a = details: mouse, in vivo, ip

Row | Compound | Cyp4a expression (Cyp4a) | Cyp2B10 expression relative to Ethoxyquin (Cyp2B10; from L/H ratios, pathway-enhanced SILAM) [fold] | levels of the low-abundance cytochrome protein Cyp2B10 (Cyp2B10; general statement) | L/H ratio of Cyp2B10 peptide NLQELLDYIGHSVEK (Cyp2B10; liver extract spiked with drug metabolism pathway-enhanced SILAM heavy liver extract, control L/H=0) | L/H ratio of Cyp2B10 peptide NLQELLDYIGHSVEK (Cyp2B10; liver extract spiked with normal SILAM heavy extract (no heavy peptide signal)) | expression of proteins examined (drug metabolism enzymes) | expression of drug metabolism related proteins relative to the total ion current [1] | number of inflammation related proteins in the lung that can be quantified using the enhanced SILAM [2] | induction of the lung proteins listed in Table 4 ([2]; versus vehicle) | change to other Cyp proteins examined (other than Cyp3a) (drug metabolism enzymes; ip) | Cyp3a protein expression (Cyp3a)
1 | Clc1cnc(Oc2ccc(Oc3ncc(Cl)cc3Cl)cc2)c(Cl)c1 [TCPOBOP] | moderate | 4 | efficiently increase levels | 2.50 | infinite | enhanced significantly the expression of many proteins examined except for Cyp2e and Homx1 | significantly increased the expression of many of these proteins | – | – | – | –
2 | lipopolysaccharide [LPS] | – | – | – | – | – | – | – | more than 100 | more than 5 times | – | –
3 | CC(=O)[C@H]1[C@H](C#N)C[C@H]2[C@@H]3CC=C4C[C@@H](O)CC[C@]4(C)[C@H]3CC[C@@]21C [PCN, pregnenolone 16α-carbonitrile] | – | – | – | – | – | – | to a lesser extent, PCN, significantly increased the expression of many of these proteins | – | – | no change | noticeable
